Results reported in patent US6689773B2, “Uracil substituted phenyl sulfamoyl carboxamides” (BASF Aktiengesellschaft, priority 2000, dated 2004).

Key:
Format in all cases: in vivo
[1] = test system: CHEAL, Lambsquarters, Chenopodium album, L. Common; experiment: Postemergence herbicidal evaluation (Example 147); settings: rating scale 0-9, two to three weeks after treatment
How it was run: (§1)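 ~2-wk seedlings; spray 40 psi; 0.016–0.032 kg/ha a.i. in acetone/water 80/20 + 1.0% methylated seed oil; greenhouse; rated 0–9 visually at 2–3 wk; multiple tests averaged.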

[2] = test system: IPOHE, Morningglory, Ivyleaf, Ipomoea hederacea, (L)Jacq.; experiment: Postemergence herbicidal evaluation (Example 147); settings: rating scale 0-9, two to three weeks after treatment
How it was run: as §1

[3] = test system: SETVI, Green foxtail, Setaria viridis, (L.)Beau; experiment: Postemergence herbicidal evaluation (Example 147); settings: rating scale 0-9, two to three weeks after treatment
How it was run: as §1

[4] = test system: ALOMY, Blackgrass, Alopecurus myosuroides; experiment: Postemergence herbicidal evaluation (Example 147); settings: rating scale 0-9, two to three weeks after treatment
How it was run: as §1

[5] = test system: AMBEL, Ragweed, Common, Ambrosia artemiisifolia, L.; experiment: Postemergence herbicidal evaluation (Example 147); settings: rating scale 0-9, two to three weeks after treatment
How it was run: as §1

[6] = test system: ABUTH, Velvetleaf, Abutilon theophrasti, Medic.; experiment: Postemergence herbicidal evaluation (Example 147); settings: rating scale 0-9, two to three weeks after treatment
How it was run: as §1

[7] = test system: ECHCG, Barnyardgrass, Echinochloa crusgalli, (L.)Beau; experiment: Postemergence herbicidal evaluation (Example 147); settings: rating scale 0-9, two to three weeks after treatment
How it was run: as §1

[8] = test system: TRZAW, Winter wheat, Tritium Aestivum, L. (Winter); experiment: Postemergence herbicidal evaluation (Example 147); settings: rating scale 0-9, two to three weeks after treatment
How it was run: as §1

[9] = test system: ZEAMX, Field corn, Zea mays L.; experiment: Postemergence herbicidal evaluation (Example 147); settings: rating scale 0-9, two to three weeks after treatment
How it was run: as §1

[10] = test system: DIGSA, Crabgrass, (Hairy) L, Digitaria sanguinalis, (L)Scop; experiment: Postemergence herbicidal evaluation (Example 147); settings: rating scale 0-9, two to three weeks after treatment
How it was run: as §1

[11] = test system: GLXMA, Soybean, Glycine max, (L.) Merr.; experiment: Postemergence herbicidal evaluation (Example 147); settings: rating scale 0-9, two to three weeks after treatment
How it was run: as §1

[12] = test system: CHEAL, Lambsquarters, Chenopodium album, L. Common; experiment: Preemergence herbicidal evaluation (Example 148); settings: rating scale 0-9, two to four weeks after treatment
How it was run: (§2)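 Herbicidal effect is a visual score comparing treated plants with a control for stand, vigor, size, malformation and chlorosis. Treatment was a preemergence spray (~0.125–0.250 kg/ha, aqueous acetone); assessment came 2–4 weeks later.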

[13] = test system: IPOHE, Morningglory, Ivyleaf, Ipomoea hederacea, (L)Jacq.; experiment: Preemergence herbicidal evaluation (Example 148); settings: rating scale 0-9, two to four weeks after treatment
How it was run: as §2

[14] = test system: SETVI, Green foxtail, Setaria viridis, (L.)Beau; experiment: Preemergence herbicidal evaluation (Example 148); settings: rating scale 0-9, two to four weeks after treatment
How it was run: as §2

[15] = test system: ALOMY, Blackgrass, Alopecurus myosuroides; experiment: Preemergence herbicidal evaluation (Example 148); settings: rating scale 0-9, two to four weeks after treatment
How it was run: as §2

[16] = test system: XANST, Cocklebur, Xanthium strumariam; experiment: Preemergence herbicidal evaluation (Example 148); settings: rating scale 0-9, two to four weeks after treatment
How it was run: as §2

[17] = test system: AMBEL, Ragweed, Common, Ambrosia artemiisifolia, L.; experiment: Preemergence herbicidal evaluation (Example 148); settings: rating scale 0-9, two to four weeks after treatment
How it was run: as §2

[18] = test system: ABUTH, Velvetleaf, Abutilon theophrasti, Medic.; experiment: Preemergence herbicidal evaluation (Example 148); settings: rating scale 0-9, two to four weeks after treatment
How it was run: as §2

[19] = test system: ECHCG, Barnyardgrass, Echinochloa crusgalli, (L.)Beau; experiment: Preemergence herbicidal evaluation (Example 148); settings: rating scale 0-9, two to four weeks after treatment
How it was run: as §2

[20] = test system: TRZAW, Winter wheat, Tritium Aestivum, L. (Winter); experiment: Preemergence herbicidal evaluation (Example 148); settings: rating scale 0-9, two to four weeks after treatment
How it was run: as §2

[21] = test system: ZEAMX, Field corn, Zea mays L.; experiment: Preemergence herbicidal evaluation (Example 148); settings: rating scale 0-9, two to four weeks after treatment
How it was run: as §2

[22] = test system: DIGSA, Crabgrass, (Hairy) L, Digitaria sanguinalis, (L)Scop; experiment: Preemergence herbicidal evaluation (Example 148); settings: rating scale 0-9, two to four weeks after treatment
How it was run: as §2

[23] = test system: GLXMA, Soybean, Glycine max, (L.) Merr.; experiment: Preemergence herbicidal evaluation (Example 148); settings: rating scale 0-9, two to four weeks after treatment
How it was run: as §2

With `C#CCNS(=O)(=O)NC(=O)c1cc(-n2c(=O)cc(C(F)(F)F)n(C)c2=O)c(F)cc1Cl` [Example 71] as the compound, how does the “Postemergence herbicidal rating CHEAL” value ([1]; rate 0.016 kg/ha) read?
The value was 5.0.

What about the “Postemergence herbicidal rating CHEAL” value ([1]; rate 0.032 kg/ha) of the same compound?
The value was 5.0.

What about the “Postemergence herbicidal rating IPOHE” value ([2]; rate 0.016 kg/ha) of the same compound?
Its value is 8.0.

And the “Postemergence herbicidal rating IPOHE” value ([2]; rate 0.032 kg/ha)?
Its value is 9.0.

And the “Postemergence herbicidal rating SETVI” value ([3]; rate 0.016 kg/ha)?
Its value is 4.0.

What about the “Postemergence herbicidal rating SETVI” value ([3]; rate 0.032 kg/ha) of the same compound?
Its value is 5.0.

What about the “Postemergence herbicidal rating ALMOY” value ([4]; rate 0.016 kg/ha) of the same compound?
The value was 1.0.

And the “Postemergence herbicidal rating ALMOY” value ([4]; rate 0.032 kg/ha)?
Its value is 1.0.

What about the “Postemergence herbicidal rating AMBEL” value ([5]; rate 0.016 kg/ha) of the same compound?
The value was 6.0.

And the “Postemergence herbicidal rating AMBEL” value ([5]; rate 0.032 kg/ha)?
Its value is 9.0.

And the “Postemergence herbicidal rating ABUTH” value ([6]; rate 0.016 kg/ha)?
The value was 9.0.

What about the “Postemergence herbicidal rating ABUTH” value ([6]; rate 0.032 kg/ha) of the same compound?
The value was 9.0.

And the “Postemergence herbicidal rating ECHCG” value ([7]; rate 0.016 kg/ha)?
The value was 2.0.

And the “Postemergence herbicidal rating ECHCG” value ([7]; rate 0.032 kg/ha)?
The value was 3.0.

What about the “Postemergence herbicidal rating TRZAW” value ([8]; rate 0.016 kg/ha) of the same compound?
The value was 4.5.

What about the “Postemergence herbicidal rating TRZAW” value ([8]; rate 0.032 kg/ha) of the same compound?
Its value is 4.5.

And the “Postemergence herbicidal rating ZEAMX” value ([9]; rate 0.016 kg/ha)?
Its value is 6.5.

And the “Postemergence herbicidal rating ZEAMX” value ([9]; rate 0.032 kg/ha)?
Its value is 6.5.

And the “Postemergence herbicidal rating DIGSA” value ([10]; rate 0.016 kg/ha)?
Its value is 2.0.

What about the “Postemergence herbicidal rating DIGSA” value ([10]; rate 0.032 kg/ha) of the same compound?
The value was 3.0.

What about the “Postemergence herbicidal rating GLXMA” value ([11]; rate 0.016 kg/ha) of the same compound?
Its value is 8.0.

And the “Postemergence herbicidal rating GLXMA” value ([11]; rate 0.032 kg/ha)?
Its value is 8.0.

What about the “Preemergence herbicidal rating CHEAL” value ([12]; rate 0.125 kg/ha) of the same compound?
Its value is 9.0.

What about the “Preemergence herbicidal rating CHEAL” value ([12]; rate 0.25 kg/ha) of the same compound?
Its value is 7.0.

What about the “Preemergence herbicidal rating IPOHE” value ([13]; rate 0.125 kg/ha) of the same compound?
Its value is 9.0.

And the “Preemergence herbicidal rating IPOHE” value ([13]; rate 0.25 kg/ha)?
The value was 9.0.

What about the “Preemergence herbicidal rating SETVI” value ([14]; rate 0.125 kg/ha) of the same compound?
Its value is 0.0.

And the “Preemergence herbicidal rating SETVI” value ([14]; rate 0.25 kg/ha)?
Its value is 2.0.

What about the “Preemergence herbicidal rating ALMOY” value ([15]; rate 0.125 kg/ha) of the same compound?
The value was 0.0.

And the “Preemergence herbicidal rating ALMOY” value ([15]; rate 0.25 kg/ha)?
The value was 0.0.

And the “Preemergence herbicidal rating XANST” value ([16]; rate 0.125 kg/ha)?
Its value is 0.0.

What about the “Preemergence herbicidal rating XANST” value ([16]; rate 0.25 kg/ha) of the same compound?
Its value is 7.0.

What about the “Preemergence herbicidal rating AMBEL” value ([17]; rate 0.125 kg/ha) of the same compound?
Its value is 8.0.

And the “Preemergence herbicidal rating AMBEL” value ([17]; rate 0.25 kg/ha)?
The value was 8.0.

What about the “Preemergence herbicidal rating ABUTH” value ([18]; rate 0.125 kg/ha) of the same compound?
Its value is 9.0.

And the “Preemergence herbicidal rating ABUTH” value ([18]; rate 0.25 kg/ha)?
Its value is 9.0.

What about the “Preemergence herbicidal rating ECHCG” value ([19]; rate 0.125 kg/ha) of the same compound?
The value was 0.0.

And the “Preemergence herbicidal rating ECHCG” value ([19]; rate 0.25 kg/ha)?
The value was 3.0.

What about the “Preemergence herbicidal rating TRZAW” value ([20]; rate 0.125 kg/ha) of the same compound?
Its value is 0.0.

And the “Preemergence herbicidal rating TRZAW” value ([20]; rate 0.25 kg/ha)?
Its value is 0.0.

And the “Preemergence herbicidal rating ZEAMX” value ([21]; rate 0.125 kg/ha)?
Its value is 0.0.

And the “Preemergence herbicidal rating ZEAMX” value ([21]; rate 0.25 kg/ha)?
Its value is 1.0.

And the “Preemergence herbicidal rating DIGSA” value ([22]; rate 0.125 kg/ha)?
Its value is 0.0.

What about the “Preemergence herbicidal rating DIGSA” value ([22]; rate 0.25 kg/ha) of the same compound?
Its value is 3.0.

And the “Preemergence herbicidal rating GLXMA” value ([23]; rate 0.125 kg/ha)?
Its value is 0.0.

What about the “Preemergence herbicidal rating GLXMA” value ([23]; rate 0.25 kg/ha) of the same compound?
Its value is 2.0.
